The text below walks through data of PubChem BioAssay (NCI).

Holding throughout (assay): NCI tumour cell line growth inhibition, 48 h
The test system of test [1] is ACHN renal.
Test [2] concerns CCRF-CEM leukemia.
Test [3] concerns HCT-116 colon.
For test [4], the system named is HCT-15 colon.
In test [5] the test system is K-562 leukemia.
In test [6] the test system is SF-295 CNS.
Test [7] relates to SNB-19 CNS.
Test [8] has as its system TK-10 renal.
Test [9] deals with UACC-257 melanoma.
For test [10], the system named is UO-31 renal.

“And” between values parts separate entries of the source, which are not always exact repeats. Identical values can stand only once.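 Protocol summary: plate cells (96-well), add compound at 5 concentrations, incubate 48 h, interpolate endpoints linearly. GI50 = concentration required for 50% inhibition of growth. Definition used: TGI = concentration required for complete inhibition of growth.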 Where only a bound is given, the exact number is not on record here.

For `CC(C)=CCC/C(C)=C/CC/C(C)=C/[C@@H]1[C@@H](CO)[C@]1(C)CC/C=C(\C)CCC=C(C)C`, the TGI in [1] is 31.5 µM; in [2], 45.2 µM; in test [3] it was above 100 µM; in [4], above 100 µM; in test [5] it was above 100 µM; in [6], above 100 µM. The TGI in test [7] is above 100 µM; in [8], above 100 µM; in [9] it was above 100 µM; in [10] it was 34.3 µM.

Turning to `CCCCCCOC(=O)C(N)Cc1ccc(OC)cc1` (centres undefined), the TGI in [1], in test [2], in test [3], in test [4], in test [5] and in [6] was above 100 µM in each case. In addition, the TGI in [7], in test [8], in [9] and in test [10] was above 100 µM throughout.

For `CC1=NN(c2cccc(Cl)c2)C(=N/c2nc3ccccc3s2)/C1=C\C=C\c1ccccc1`, the TGI is 88.2 µM in test [1]; above 100 µM in test [2]; above 100 µM in [3]; above 100 µM in [4]; above 100 µM in test [5]; above 100 µM in test [6]. The TGI in [8], in test [9] and in test [10] was above 100 µM each time.

For `COC1OC(C(=O)CP(=O)(OC)OC)C(OCc2ccccc2)C(OCc2ccccc2)C1OCc1ccccc1` (centres undefined), the TGI is 29.4 µM and 29.9 µM in [1]; > 100 µM and 96.3 µM in test [2]; 29 µM and 30.2 µM in test [3]; 33.4 µM and 36.1 µM in test [4]; 63.1 µM and > 100 µM in test [5]; 28.1 µM and 30.3 µM in test [6]. Further, the TGI is 29.7 µM and 30.3 µM in [7]; 30.9 µM and 33.9 µM in test [8]; 29.3 µM and 30.1 µM in test [9]; 30.9 µM and 23.5 µM in test [10].

For `Cc1cc(N2CCOCC2)nc(N(CCCNc2ccnc3cc(Cl)ccc23)Cc2ccc3c(c2)OCO3)n1`, the GI50 in test [2] was 0.355 µM; in test [3], 0.464 µM; in [5], 0.436 µM; in test [7], 4.18 µM; in test [9], 1.99 µM. The TGI in test [2] was determined as 2.1 µM; in test [3], 1.63 µM; in test [5] it was 2.42 µM; in [7], 35.7 µM; in [9] it was 3.48 µM.

With `CCOc1cc(NC(C)=O)ccc1C(=O)N/N=C/c1ccco1`, the TGI in test [1], in test [2], in test [3], in [4], in test [5] and in [6] was above 100 µM in each case. The TGI in [8] and in [9] was above 100 µM each time.

Regarding `COC(=O)c1c(O)ccc2c1c1c(n2Cc2ccccn2)C(=O)c2ccccc2C1`, the TGI in [2], in test [3], in test [4], in test [5], in test [6] and in test [7] was above 100 µM in each case. The TGI in test [8], in [9] and in test [10] was above 100 µM throughout.

With `NC(CCc1ccccc1)(C(=O)O)c1ccccc1` (centres undefined), the TGI in test [1], in test [2], in test [3], in test [4], in test [5] and in test [6] was above 100 µM throughout. The TGI in test [7], in [8], in test [9] and in test [10] was above 100 µM in each case.

For `COc1cc(S(=O)(=O)N/N=C/C=C/c2ccccc2)c(OC)cc1NC(C)=O`, the TGI in test [1], in [2], in [3], in [4], in [6] and in test [7] was above 100 µM throughout. Besides, the TGI in test [9] and in test [10] was above 100 µM each time.

`CC(C)(C)OC(=O)N1C(C2=COc3ccccc3O2)=COc2cccnc21`: the TGI was found to be 3.19 µM in test [1]; 4.98 µM in [3]; 3.46 µM in test [4]; 5.33 µM in [5]; 3.99 µM in test [6]; 7.72 µM in test [8]. In addition, the TGI in [9] stood at 3.92 µM; in [10], 3.1 µM.

As for `CN(C)C/C=C(/c1ccc(Br)cc1)c1cccnc1`, the TGI in test [1] was above 100 µM; in test [3], above 100 µM; in test [4], above 100 µM; in test [5] it was above 100 µM; in test [6], 63.5 µM; in test [7], above 100 µM. Moreover, the values for the TGI in [8], in test [9] and in test [10] were above 100 µM, 35.3 µM and above 100 µM, respectively.

Regarding `COc1cccc(/C=N/[N-]C(N)=O)c1[O-].[Cu+2].[OH3+].c1cnc2c(c1)ccc1cccnc12`, the TGI is 40.3 µM in [1]; 66.2 µM in test [2]; 27.8 µM in test [3]; above 100 µM in test [4]; 39.3 µM in test [5]; 51.2 µM in test [6]. In addition, the TGI in [7] came out at 34.2 µM; in test [8] it was 30.4 µM; in test [9] it was 34.5 µM; in [10], 38.2 µM.

For the compound `O=S1c2ccccc2N=C(c2ccc3ccccc3c2)CC1c1ccccc1` (centres undefined), the TGI in [1] is 31.8 µM; in [2], 81.2 µM; in [3], 33.6 µM; in test [4], 32.5 µM; in test [5] it was 62.1 µM; in test [6], 36.2 µM. For the same compound, the TGI is 34.9 µM in [7], 68.7 µM in test [8], above 100 µM in [9] and 32.4 µM in [10].

Take `CCOC(=O)C(C)OC(=O)c1ccc(C)cc1` (centres undefined): the TGI in test [1], in test [2], in [3], in test [4], in test [5] and in [7] was above 100 µM each time. For the same compound, the TGI in [8], in test [9] and in [10] was above 100 µM in each case.

In the case of `CC(C)(C)OC(=O)N1C[C@H](CC(=O)OCc2ccccc2)C[C@H]1C(=O)OCC(Cl)(Cl)Cl`, the TGI in test [1], in test [2], in test [3], in [4], in test [5] and in [6] was above 50 µM in each case. The TGI in test [7] was above 50 µM; in test [8], above 50 µM; in test [9], 31.3 µM; in test [10], 11 µM.

Take `O=CC(O)C(O)C(O)COc1cc(CO)cc2c1C(=O)c1ccccc1C2=O` (centres undefined): the TGI in [1] is above 31.6 µM; in [2], above 100 µM; in [3] it was above 100 µM; in test [4], above 100 µM; in [5], above 100 µM; in test [6], above 100 µM. Moreover, the TGI in test [7], in test [8], in [9] and in test [10] was above 100 µM in each case.

As for `COc1ccc(Cc2nc3cc(Cl)ccc3o2)cc1`, the TGI in [1], in test [2], in [3], in [4], in [5] and in test [6] was above 100 µM in each case. In addition, the TGI in test [7] was above 100 µM; in test [8], above 100 µM; in [9], 70.6 µM; in [10] it was above 100 µM.

Regarding `CC(C)(C)c1ccc(O)c(Br)c1`, the TGI in [1], in test [2], in [3], in test [4], in test [5] and in [6] was above 100 µM each time. Moreover, the TGI in [7], in test [8], in [9] and in test [10] was above 100 µM each time.

`NCCCCN`: the TGI in test [1], in test [2], in test [3], in test [4], in [5] and in test [6] was above 100 µM throughout. Further, the TGI in test [7], in test [8], in [9] and in test [10] was above 100 µM throughout.

Consider `C/C(=C\CNc1ncnc2nc(Cl)[nH]c12)CO`, for which the TGI in [1], in test [2], in [3], in test [5], in test [6] and in test [7] was above 100 µM in each case. Moreover, the TGI in test [8], in test [9] and in test [10] was above 100 µM throughout.

Consider `C=C1CCCC(C)(C)[C@@H]1CC/C(C)=C/Cn1c2cccc(=O)c-2nc2ccccc21`, for which the TGI in [2] was 13 µM; in test [3], 6.62 µM and 2.73 µM; in test [5] it was above 100 µM; in [6] it was 26.9 µM and 4.16 µM; in test [7], 60.2 µM and 15.8 µM; in test [9], 9.02 µM and 4.68 µM. In addition, the GI50 in test [3] is 2.55 µM; in [4] it was 4.34 µM; in test [6], 3.93 µM; in test [7], 9.54 µM; in test [9], 2.83 µM; in test [10] it was 3.91 µM.

Regarding `C[C@H](Nc1ccc(C#N)n(C)c1=O)c1cc2cc(Cl)ccc2[nH]c1=O`, the GI50 in test [1] is 27 µM; in test [2] it was 24.5 µM; in test [3] it was 23.9 µM; in [4], 28.6 µM; in [5] it was 27.1 µM; in test [6] it was 26.9 µM. Also, the GI50 in test [7] is 32.5 µM; in test [8] it was 37.8 µM; in [9] it was 32.6 µM; in test [10] it was 17.6 µM. Also, the TGI was above 100 µM in [1]; above 100 µM in test [2]; above 100 µM in [3]; above 100 µM in test [4]; above 100 µM in [5]; 94.3 µM in test [6]. Also, the TGI in test [7], in test [8], in test [9] and in test [10] was above 100 µM in each case.

As to `NC(N)=NS(=O)(=O)c1ccc(Nc2c3ccccc3nc3c(C(=O)N4CCN(CCO)CC4)ccc(Cl)c23)cc1`, the TGI in [1], in [2], in test [3], in [4], in test [5] and in test [6] was above 100 µM in each case. For the same compound, the TGI in test [7], in [8], in test [9] and in [10] was above 100 µM throughout.

As for `Clc1ccc(NCc2nnc(COc3ccc(OCc4nnc(CNc5ccc(Cl)cc5)o4)c(Cl)c3)o2)cc1`, the TGI in test [1] was above 100 µM; in test [2] it was 44.8 µM; in test [3] it was above 100 µM; in test [4] it was above 100 µM; in [6], above 100 µM; in [7], above 100 µM. In addition, the TGI in test [8], in test [9] and in test [10] was above 100 µM throughout.

Turning to `O=P(O)(O)OP(=O)(O)O`, the TGI in test [1], in [2], in [3], in test [4], in test [5] and in [7] was above 100 µM each time. Further, the TGI in test [8], in test [9] and in test [10] was above 100 µM each time.

As for `CCN(CC)/[N+]([O-])=N/OC`, the TGI in [1], in test [2], in test [3], in test [4], in test [5] and in test [6] was above 100 µM throughout. Also, the TGI in [7], in [8], in test [9] and in test [10] was above 100 µM each time.

For `CC(Br)C(=O)c1ccc2cc(Br)c3ccccc3c2c1` (centres undefined), the TGI was determined as 31.4 µM in test [1]; 14.6 µM in [2]; 29.9 µM in test [3]; 31 µM in test [4]; 42.9 µM in [5]; 31.4 µM in test [6]. Moreover, the TGI was determined as 32.7 µM in test [7], 33.1 µM in test [8], 31.5 µM in test [9] and 32 µM in test [10].
